Measurements taken from patent US7067522B2, “2,4,DI (hetero-) arylamino (-oxy)-5-substituted pyrimidines as antineoplastic agents” (AstraZeneca AB, priority 2000, dated 2006).

How the values were obtained:
[1] = target: T1, human Focal Adhesion Kinase (FAK) (Homo sapiens, UniProt Q05397); assay: FAK3 Kinase Inhibition Assay (in vitro enzyme assay); format: biochemical; conditions: read-out: FAK inhibitory activity IC50
T1 construct: FAK (full length human cDNA described by Andre et al); made in house; host or cells: Sf21 insect cells, baculovirus (pFastbac 1); cleared cell lysate used as enzyme stock
T1 sequence (Q05397 whole entry): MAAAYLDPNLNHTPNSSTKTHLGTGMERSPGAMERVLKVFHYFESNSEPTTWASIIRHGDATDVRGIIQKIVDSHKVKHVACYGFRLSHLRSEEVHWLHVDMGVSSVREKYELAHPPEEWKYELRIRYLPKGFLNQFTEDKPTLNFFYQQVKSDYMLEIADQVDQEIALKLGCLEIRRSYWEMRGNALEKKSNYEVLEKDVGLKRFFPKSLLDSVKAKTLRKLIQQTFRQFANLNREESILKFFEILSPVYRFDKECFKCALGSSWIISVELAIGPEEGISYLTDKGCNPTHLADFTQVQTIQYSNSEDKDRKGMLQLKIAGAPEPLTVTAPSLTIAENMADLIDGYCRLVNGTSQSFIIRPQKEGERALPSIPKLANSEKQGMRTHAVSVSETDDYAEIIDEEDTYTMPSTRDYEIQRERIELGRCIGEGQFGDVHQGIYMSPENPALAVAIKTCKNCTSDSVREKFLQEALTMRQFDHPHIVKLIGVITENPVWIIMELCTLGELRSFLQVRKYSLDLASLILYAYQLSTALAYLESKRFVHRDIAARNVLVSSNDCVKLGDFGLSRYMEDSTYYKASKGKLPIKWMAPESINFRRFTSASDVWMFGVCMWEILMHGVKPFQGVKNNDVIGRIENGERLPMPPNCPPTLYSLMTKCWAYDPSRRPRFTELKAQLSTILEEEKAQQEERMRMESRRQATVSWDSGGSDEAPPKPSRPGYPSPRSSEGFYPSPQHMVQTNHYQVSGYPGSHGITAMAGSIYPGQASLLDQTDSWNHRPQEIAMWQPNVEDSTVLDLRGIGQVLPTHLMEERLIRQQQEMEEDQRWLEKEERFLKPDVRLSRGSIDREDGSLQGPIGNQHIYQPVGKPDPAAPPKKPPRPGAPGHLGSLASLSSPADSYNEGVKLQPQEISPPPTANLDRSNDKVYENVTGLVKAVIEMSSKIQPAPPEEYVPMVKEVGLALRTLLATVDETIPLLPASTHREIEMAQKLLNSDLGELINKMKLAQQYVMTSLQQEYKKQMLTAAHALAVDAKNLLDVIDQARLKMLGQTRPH
Description: FAK3 Kinase Inhibition Assay
This assay determines the ability of a test compound to inhibit tyrosine kinase activity of human Focal Adhesion Kinase (FAK).
Active FAK protein has been previously expressed in a baculovirus system using a similar N-terminal 6-histidine tag (Protein Expression And Purification, 1996, 7: 12–18). The human FAK cDNA was cloned into the baculovirus transplacement vector, pFastbac 1 (Life Technologies), and the recombinant construct was co-transfected into insect cells (for example Spodoptera frugiperda 21(Sf21)) with viral DNA to prepare recombinant baculovirus (details of the methods for the assembly of recombinant DNA molecules and the preparation and use of recominant baculovirus can be found in standard texts for example Sambrook et al, 1989, Molecular cloning-A Laboratory Manual, 2nd edition, Cold Spring Harbour Laboratory Press and O'Reilly et al, 1992, Baculovirus Expression Vectors-A Laboratory Manual, W. H. Freeman and Co, New York. Details specific to the use of the pFastbac (‘Bac to Bac’) system are provided in Anderson et al., 1995, FOCUS (Life Technologies Bulletin Magazine), 17, p53.)
For expression of biologically active human FAK protein, Sf21 cells were infected with plaque-pure FAK recombinant virus at a multiplicity of infection of 3 and harvested 48 hours later. […]

[2] = target: T2, CDK4/Cyclin D1 (Homo sapiens, UniProt P11802); assay: CDK4 Inhibition Assay (Scintillation Proximity Assay, GST-Retinoblastoma substrate); format: biochemical; conditions: in vitro kinase assay, 0.2 μM ATP; read-out: CDK4 inhibitory activity IC50
T2 construct: made in house; host or cells: Sf21 insect cells, baculovirus co-infection (pVL1393)
T2 sequence (P11802 whole entry): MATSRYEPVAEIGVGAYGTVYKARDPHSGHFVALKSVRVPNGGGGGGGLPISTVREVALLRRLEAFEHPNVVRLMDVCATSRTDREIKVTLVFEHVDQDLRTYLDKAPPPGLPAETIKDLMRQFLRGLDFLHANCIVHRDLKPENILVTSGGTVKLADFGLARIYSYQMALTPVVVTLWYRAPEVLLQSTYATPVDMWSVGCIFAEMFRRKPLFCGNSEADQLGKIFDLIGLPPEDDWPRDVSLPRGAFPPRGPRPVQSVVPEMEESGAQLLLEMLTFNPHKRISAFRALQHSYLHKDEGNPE
T2 sequence (P24385 whole entry partner): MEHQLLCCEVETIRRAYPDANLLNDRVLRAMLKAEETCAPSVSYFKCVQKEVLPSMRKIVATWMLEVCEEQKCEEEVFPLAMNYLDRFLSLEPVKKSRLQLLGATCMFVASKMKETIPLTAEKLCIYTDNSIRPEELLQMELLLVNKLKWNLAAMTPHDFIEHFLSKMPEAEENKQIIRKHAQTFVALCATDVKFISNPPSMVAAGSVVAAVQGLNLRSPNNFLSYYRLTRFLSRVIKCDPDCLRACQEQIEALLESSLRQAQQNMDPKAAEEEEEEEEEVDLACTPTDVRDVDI
Protocol: The compounds were tested in an in vitro kinase assay in 96 well format using Scintillation Proximity Assay (SPA-obtained from Amersham) for measuring incorporation of [γ-33-P]-Adenosine Triphosphate into a test substrate (GST-Retinoblastoma). In each well was placed the compound to be tested (diluted in DMSO and water to correct concentrations) and in control wells either p16 as an inhibitor control or DMSO as a positive control.
Approximately 0.5 μl of CDK4/Cyclin D1 partially-purified enzyme (amount dependent on enzyme activity) diluted in 25 μl incubation buffer was added to each well then 20 μl of GST-Rb/ATP/ATP33 mixture (containing 0.5 μg GST-Rb and 0.2 μM ATP and 0.14 μCi [γ-33-P]-Adenosine Triphosphate), and the resulting mixture shaken gently, then incubated at room temperature for 60 minutes.
To each well was then added 150 μL stop solution containing (0.8 mg/well of Protein A-PVT SPA bead (Amersham)), 20 pM/well of Anti-Glutathione Transferase, Rabbit IgG (obtained from Molecular Probes), 61 mM EDTA and 50 mM HEPES pH 7.5 containing 0.05% sodium azide.
The plates were sealed with Topseal-S plate sealers, left for two hours then spun at 2500 rpm, 1124 xg., for 5 minutes. The plates were read on a Topcount for 30 seconds per well. […]

IC50 [1] [nM] | IC50 [2] [nM] | SMILES
218 |  | CCN(CC)CCOc1ccc(Nc2ncc(Br)c(Nc3ccccc3)n2)cc1 [Example 25]
 | 679 | OCCOCc1ccc(Nc2ncc(Br)c(Nc3ccccc3)n2)cc1 [Example 31, 4-Anilino-5-bromo-2-[4-(2-hydroxyethoxy)methylanilino]pyrimidine]
